Measured values taken from patent US7629341B2, “Human ADAM-10 inhibitors” (Symphony Evolution, Inc., priority 2003, dated 2009).

Experiments:
[1] = target: T1, ADAM-10 (UniProt O14672); test: ADAM-10 enzyme assay, cleavage of a fluorogenic 10-residue peptide; type: biochemical, mouse or human (mADAM-10 or hADAM-10); settings: in vitro;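 further: mouse or human ADAM-10 at 5 nM active enzyme, pH 8.0 HEPES buffer with CaCl2 and NP-40, compounds titrated 100 µM down to 0.5 nM, fluorescence read after 16 h at room temperature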
T1 sequence (O14672 1-748): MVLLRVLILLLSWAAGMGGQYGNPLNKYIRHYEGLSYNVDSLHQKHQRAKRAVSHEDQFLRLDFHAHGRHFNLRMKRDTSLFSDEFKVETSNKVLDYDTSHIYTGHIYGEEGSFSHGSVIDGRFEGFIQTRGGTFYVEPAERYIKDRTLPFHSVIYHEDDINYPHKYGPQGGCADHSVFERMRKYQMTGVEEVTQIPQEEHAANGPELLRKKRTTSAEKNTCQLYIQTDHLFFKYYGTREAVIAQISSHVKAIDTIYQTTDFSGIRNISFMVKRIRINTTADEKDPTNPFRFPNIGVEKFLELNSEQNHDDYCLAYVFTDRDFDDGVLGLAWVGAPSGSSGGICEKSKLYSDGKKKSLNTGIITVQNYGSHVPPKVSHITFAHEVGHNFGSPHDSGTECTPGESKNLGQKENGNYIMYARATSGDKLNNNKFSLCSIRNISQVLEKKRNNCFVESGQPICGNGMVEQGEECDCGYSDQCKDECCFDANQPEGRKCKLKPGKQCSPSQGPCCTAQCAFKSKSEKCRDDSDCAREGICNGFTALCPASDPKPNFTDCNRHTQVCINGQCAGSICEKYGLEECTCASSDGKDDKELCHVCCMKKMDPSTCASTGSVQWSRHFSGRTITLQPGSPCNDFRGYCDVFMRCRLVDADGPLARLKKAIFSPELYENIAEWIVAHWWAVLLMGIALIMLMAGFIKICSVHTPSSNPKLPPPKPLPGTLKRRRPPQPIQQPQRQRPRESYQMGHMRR

[2] = target: MMP-13 (collagenase-3) (Homo sapiens, UniProt P45452); test: In vitro metalloprotease inhibition, MMP-13; type: biochemical
[3] = target: T2, MMP-1 (Fibroblast collagenase) (Homo sapiens, UniProt P03956); test: In vitro metalloprotease inhibition, MMP-1; type: biochemical
T2 sequence (P03956 100-469): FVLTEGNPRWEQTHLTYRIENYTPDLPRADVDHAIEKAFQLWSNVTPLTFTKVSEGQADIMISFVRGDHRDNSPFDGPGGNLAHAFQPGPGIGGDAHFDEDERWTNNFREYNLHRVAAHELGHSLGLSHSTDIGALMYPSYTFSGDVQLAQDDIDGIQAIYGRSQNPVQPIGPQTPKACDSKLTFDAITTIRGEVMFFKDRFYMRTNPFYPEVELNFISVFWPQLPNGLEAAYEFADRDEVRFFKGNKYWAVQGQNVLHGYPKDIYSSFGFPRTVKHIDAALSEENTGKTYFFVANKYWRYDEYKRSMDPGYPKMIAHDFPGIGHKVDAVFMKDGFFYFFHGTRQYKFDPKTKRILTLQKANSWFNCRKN
Text: (§1) Blank cells indicate lack of data only.

[4] = target: T3, MMP-2 (72 kDa gelatinase, gelatinase A) (Homo sapiens, UniProt P08253); test: In vitro metalloprotease inhibition, MMP-2; type: biochemical
T3 sequence (P08253 110-660): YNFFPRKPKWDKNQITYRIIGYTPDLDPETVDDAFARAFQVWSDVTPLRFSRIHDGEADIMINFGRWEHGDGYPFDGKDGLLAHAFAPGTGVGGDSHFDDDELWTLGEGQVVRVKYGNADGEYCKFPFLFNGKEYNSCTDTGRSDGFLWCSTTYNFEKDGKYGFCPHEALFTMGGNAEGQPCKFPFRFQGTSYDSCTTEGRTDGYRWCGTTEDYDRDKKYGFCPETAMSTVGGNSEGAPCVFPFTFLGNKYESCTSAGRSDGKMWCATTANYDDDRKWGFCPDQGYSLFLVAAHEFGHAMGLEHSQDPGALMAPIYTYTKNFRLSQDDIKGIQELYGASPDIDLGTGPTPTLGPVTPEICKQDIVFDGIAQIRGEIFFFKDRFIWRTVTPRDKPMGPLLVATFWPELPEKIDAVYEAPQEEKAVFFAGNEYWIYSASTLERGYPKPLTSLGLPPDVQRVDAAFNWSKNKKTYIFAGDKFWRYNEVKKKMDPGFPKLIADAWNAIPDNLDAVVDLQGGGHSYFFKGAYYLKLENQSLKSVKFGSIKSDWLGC

[5] = target: MMP-3 (Stromelysin-1) (Homo sapiens, UniProt P08254); test: In vitro metalloprotease inhibition, MMP-3; type: biochemical
Chain of MMP-3 (Stromelysin-1) (P08254 100-477, species assumed): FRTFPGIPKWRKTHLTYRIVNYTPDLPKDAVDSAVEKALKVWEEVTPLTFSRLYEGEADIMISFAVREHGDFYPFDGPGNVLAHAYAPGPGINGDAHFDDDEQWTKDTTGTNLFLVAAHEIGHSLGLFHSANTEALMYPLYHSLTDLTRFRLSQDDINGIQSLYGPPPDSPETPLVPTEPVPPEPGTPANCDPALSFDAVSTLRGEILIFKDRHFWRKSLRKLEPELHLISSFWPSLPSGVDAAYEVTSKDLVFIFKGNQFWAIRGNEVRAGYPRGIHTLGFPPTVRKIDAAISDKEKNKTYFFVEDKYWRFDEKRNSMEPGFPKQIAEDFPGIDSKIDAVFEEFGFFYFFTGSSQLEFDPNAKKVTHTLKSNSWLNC
Text: as §1

Row | SMILES | IC50 [1] [nM] | IC50 [2] [nM] | IC50 [3] [nM] | IC50 [4] [nM] | IC50 [5] [nM]
1 | CN(C)S(=O)(=O)N1CCN(S(=O)(=O)c2cc(F)c(Oc3ccc(Cl)cc3)c(F)c2)[C@@H](C(=O)NO)C1 [Entry 36] | < 50 | < 50 | 1000 to 20000 | < 50 | 50 to 1000
2 | COCCOC(=O)N1CCN(S(=O)(=O)c2cc(F)c(Oc3ccccc3)c(F)c2)[C@@H](C(=O)NO)C1 [Entry 40] | < 50 | < 50 | 1000 to 20000 | < 50 | 50 to 1000
3 | O=C(NO)[C@H]1CN(S(=O)(=O)c2cc(F)c(O)c(F)c2)CCN1S(=O)(=O)c1cc(F)c(Oc2ccc(Cl)cc2)c(F)c1 [Entry 41] | < 50 | < 50 | 1000 to 20000 | < 50 | < 50
4 | O=C(NO)[C@H]1CN(S(=O)(=O)c2cccc3cnccc23)CCN1S(=O)(=O)c1cc(F)c(Oc2ccc(Cl)cc2)c(F)c1 [Entry 48] | < 50 | < 50 | > 20000 | < 50 | 50 to 1000
5 | CN(C)c1ccc2c(S(=O)(=O)N3CCN(S(=O)(=O)c4cc(F)c(Oc5ccc(Cl)cc5)c(F)c4)[C@@H](C(=O)NO)C3)cccc2c1 [Entry 49] | 1000 to 20000 | < 50 | > 20000 | < 50 | 50 to 1000
6 | CN(C)c1ccc2ccc(S(=O)(=O)N3CCN(S(=O)(=O)c4cc(F)c(Oc5ccc(Cl)cc5)c(F)c4)[C@@H](C(=O)NO)C3)cc2c1 [Entry 50] | 1000 to 20000 | < 50 | > 20000 | > 20000 | 50 to 1000

More lines, now with the values ahead:

Row | IC50 [1] [nM] | IC50 [2] [nM] | IC50 [3] [nM] | IC50 [4] [nM] | IC50 [5] [nM] | SMILES
7 | < 50 | < 50 | 1000 to 20000 | < 50 | 50 to 1000 | O=C(CCl)NC(=O)N1CCN(S(=O)(=O)c2cc(F)c(Oc3ccc(Cl)cc3)c(F)c2)[C@@H](C(=O)NO)C1 [Entry 33]
8 | < 50 | < 50 | 1000 to 20000 | < 50 | 50 to 1000 | O=C(NO)[C@H]1CN(C(=O)C(=O)N2CCCCC2)CCN1S(=O)(=O)c1cc(F)c(Oc2ccc(Cl)cc2)c(F)c1 [Entry 35]
9 | < 50 | < 50 | 50 to 1000 | < 50 | < 50 | CN1CCN(C(=O)NS(=O)(=O)N2CCN(S(=O)(=O)c3cc(F)c(Oc4ccc(Cl)cc4)c(F)c3)[C@@H](C(=O)NO)C2)CC1 [Entry 39]
10 | < 50 | < 50 | 1000 to 20000 | < 50 | 1000 to 20000 | O=C(NO)[C@H]1CN(C(=O)c2ccncc2)CCN1S(=O)(=O)c1cc(F)c(Oc2ccc(Cl)cc2)c(F)c1 [Entry 42]
11 | < 50 | < 50 | > 20000 | < 50 | 50 to 1000 | CCCCCCC(=O)N1CCN(S(=O)(=O)c2cc(F)c(Oc3ccc(Cl)cc3)c(F)c2)[C@@H](C(=O)NO)C1 [Entry 43]
12 | < 50 | 50 to 1000 | > 20000 | < 50 | 1000 to 20000 | CCCC(CCC)C(=O)N1CCN(S(=O)(=O)c2cc(F)c(Oc3ccc(Cl)cc3)c(F)c2)[C@@H](C(=O)NO)C1 [Entry 44]
13 | < 50 | < 50 | 1000 to 20000 | < 50 | 50 to 1000 | O=C(CN1CCOCC1)NC(=O)N1CCN(S(=O)(=O)c2cc(F)c(Oc3ccc(Cl)cc3)c(F)c2)[C@@H](C(=O)NO)C1 [Entry 46]
14 | < 50 | < 50 | > 20000 | < 50 | 50 to 1000 | O=C(NO)[C@H]1CN(C(=O)Cc2cccnc2)CCN1S(=O)(=O)c1cc(F)c(Oc2ccc(Cl)cc2)c(F)c1 [Entry 47]
